Assay results reported in paper PMC13185115, “Photovermellogens: Minimalistic Pyridinium-Based Acylhydrazones with Photoswitchable Basicity for Operation in Aqueous Media” (The Journal of Organic Chemistry, 2026).

Key:
Format in all cases: physicochemical
[1] = Thermal Z-PH+ to E-PH+ back-isomerization kinetics; conditions: Arrhenius analysis, 47, 55 and 64 °C, from 254 nm photostationary state
Description: Photoisomerization studies were subsequently carried out in acidic medium (pH = pK a – 2) in order to assess the photoresponse of the protonated species. Under these conditions, the anticipated photoisomerization of the thermally stable E-P a–dH^+ species was investigated by UV–vis absorption spectroscopy under irradiation at 254 nm. […] It is noteworthy that the irradiation wavelength can be extended to 365 nm, yielding virtually the same observations as for 254 nm irradiation (see footnotes of Table ). Irradiation also produced clear NMR spectral changes that support the occurrence of the E→Z isomerization. In essence, the signals Hf–h of the phenyl moiety were only slightly affected, whereas those of the pyridinium and acylhydrazone fragments shifted markedly, consistent with the formation of an intramolecular hydrogen bond in the Z-P a–cH^+ species. The reverse Z→E transformation of the protonated forms P a–cH^+ was also achieved upon irradiation at λ > 420 nm, giving lower quantum yields and less favorable PSDs (Figures S145–S147, S149–154, S1).
5.5. Z-P a-cH+→E-P a-cH+ thermal back-isomerization kinetics.
Figure S155. Absorption spectrum variation during 48h at room temperature from the PSS reached for P aH·Cl (7µM, pH 6, Red) state during 48h. E-isomer absorption spectrum in green.
Even though the kinetics has not been fully completed, it can be observed that it occurs much more slowly than photochemical processes.
To obtain an estimation of P aH·Cl Z→E thermal half-live at room temperature, the Z →E thermal reversion kinetics were monitored starting from the 254nm photostationary state at different temperatures (47, 55 and 64 °C). By tracking the absorbance changes at 420 nm, an Arrhenius analysis was performed, allowing the determination of the activation energy (EA) and the estimation of the thermal half-life at 25 °C.

[2] = Irradiation of the conjugate bases (E→Z attempt; Z→E at >495 nm); conditions: 26 µM, pH 13, irradiation at >495 nm, monitored at 429 nm
Description: Having confirmed the photochemical behavior of the protonated forms, we next explored their light-responsiveness in the deprotonated state. […] To probe whether Z-P a–c could nonetheless be generated indirectly, we explored a consecutive photoisomerization–deprotonation sequence. Thus, E-P a–cH^+ was first irradiated at 254 nm and pH 6 to enrich the Z population, followed by immediate adjustment of the solution to pH 13. Under these conditions, transient spectroscopic features were observed, consistent with the kinetic trapping of the metastable Z-P a–c species. […] These spectroscopic observations enabled the estimation of virtual pK a values for the Z-enriched solutions (Table and Figures S163–168, SI1), which confirmed the reduced acidity of the NH group in the Z-isomers, presumably arising from intramolecular hydrogen-bond formation.
To gain further insight into the behavior of the metastable Z-bases, absorbance changes of the kinetically trapped state were monitored over time in the dark for the whole P a–c series.
7. Thermal Z-P a-c→E-P a-c isomerizations from the PSS […]
(§1) Figure S169. […] Right: Kinetics (monitored at 429 nm) of the isomerization of Z-P a to E-P a (26 µM) at room temperature. k = 7.2 × 10 –4 s–1.
(§2) Figure S170. […] Right: Kinetics (monitored at 429 nm) of the photoisomerization of Z-P a to E-P a (26 µM) upon irradiation at >495 nm. k = 2.5 × 10 –3 s–1. […]

[3] = Thermal Z-P to E-P isomerization of the kinetically trapped conjugate bases at pH 13; conditions: 26 µM, pH 13, room temperature, monitored at 429 nm
Description: Having confirmed the photochemical behavior of the protonated forms, we next explored their light-responsiveness in the deprotonated state. […] To probe whether Z-P a–c could nonetheless be generated indirectly, we explored a consecutive photoisomerization–deprotonation sequence. Thus, E-P a–cH^+ was first irradiated at 254 nm and pH 6 to enrich the Z population, followed by immediate adjustment of the solution to pH 13. Under these conditions, transient spectroscopic features were observed, consistent with the kinetic trapping of the metastable Z-P a–c species. […]
To gain further insight into the behavior of the metastable Z-bases, absorbance changes of the kinetically trapped state were monitored over time in the dark for the whole P a–c series. […]
as §1, §2
is in blue. Right: Kinetics (monitored at 456 nm) of the isomerization of Z-P b to E-P b (15 µM) at room temperature. k = 8.9 × 10 –5 s–1. […]
is in blue. Right: Kinetics (monitored at 432 nm) of the isomerization of Z-P c to E-P c (16 µM) at room temperature. k = 8.4 × 10 –5 s–1.

## C[n+]1ccc(N/N=C\C(=O)c2ccccc2)cc1 [Z-P aH^+]
[1]
  activation energy E A of thermal Z→E reversion: 17.4 kcal·mol^–1

## C[n+]1ccc([N-]/N=C\C(=O)c2ccccc2)cc1 [Z-P a]
[2]
  k photoisomerization Z-P to E-P: 2.5 10^–3 s^–1
[3]
  k thermal isomerization Z-P to E-P: 7.2 10^–4 s^–1
